The numbers were not newly measured in patent publication US5929038A, “Pharmaceutical preparations which inhibit hepatitis B virus (HBV) replication” (Choongwae Pharmaceutical Co., Ltd., priority 1992, dated 1999), which cites them from elsewhere.

Each structure is given as a SMILES string.

The data set relates to hepatitis B (HBV infection). The following applies: cited from earlier work.

For the molecule `Nc1ncnc2c1ncn2[C@@H]1O[C@H](COP(=O)(O)O)[C@@H](O)[C@@H]1O` [ara-AMP, reference compound], the “suppression of HBV infection” value (clinical use) was “transiently suppress HBV infection”. Also, under “in vivo”, the toxicities result was “often serious toxicities”.
